Reference: the CheMixHub ionic liquid set
± gives the uncertainty stated by the source.

Test: xn = mol fraction of the nth substance listed

CC(=O)O.CC(=O)[O-].CC[NH+](CC)CCO + CCCC[n+]1ccn(C)c1.COP(=O)([O-])OC
101 kPa
Settings	viscosity [mPa·s]
278.15 K, x1 = 0.3316	453 ± 17
278.15 K, x1 = 0.5275	335 ± 11
283.15 K, x1 = 0.7493	220 ± 6.5
288.15 K, x1 = 0.5275	168.3 ± 4.1
293.15 K, x1 = 0.0748	568 ± 20
293.15 K, x1 = 0.7493	116.3 ± 2.9
298.15 K, x1 = 0.5275	93.7 ± 2
298.15 K, x1 = 0.6343	91.1 ± 2
298.15 K, x1 = 0.8567	76.9 ± 1.9
303.15 K, x1 = 0.0748	283.6 ± 7.4
303.15 K, x1 = 1	59.6 ± 1.6
308.15 K, x1 = 0.3316	74.6 ± 1.4
308.15 K, x1 = 0.7493	53.4 ± 1.2
313.15 K, x1 = 0.5275	44.19 ± 0.86
313.15 K, x1 = 0.6343	42.6 ± 0.9
318.15 K, x1 = 0.8567	27.56 ± 0.67
323.15 K, x1 = 0.5275	30.28 ± 0.59
323.15 K, x1 = 0.6343	29.17 ± 0.61
323.15 K, x1 = 0.8567	22.27 ± 0.54
328.15 K, x1 = 0.0748	73.3 ± 1
328.15 K, x1 = 0.4263	27.4 ± 0.5
328.15 K, x1 = 0.7493	23.34 ± 0.53
333.15 K, x1 = 0.6343	18.02 ± 0.38
333.15 K, x1 = 0.7493	17.41 ± 0.39
338.15 K, x1 = 0.0748	47.83 ± 0.65
343.15 K, x1 = 0.7493	13.68 ± 0.31
348.15 K, x1 = 0.6343	12.02 ± 0.25
348.15 K, x1 = 1	8.93 ± 0.23
358.15 K, x1 = 0.5275	9.3 ± 0.18
358.15 K, x1 = 0.8567	6.94 ± 0.17
358.15 K, x1 = 1	6.65 ± 0.17
363.15 K, x1 = 1	5.8 ± 0.15
368.15 K, x1 = 0.5275	7.03 ± 0.14
368.15 K, x1 = 0.6343	6.64 ± 0.14

CCCC(=O)[O-].CC[NH+](CC)CCO + CCCC[n+]1ccn(C)c1.COP(=O)([O-])OC
101 kPa
Settings	viscosity [mPa·s]
278.15 K, x1 = 0.8006	196.8 ± 5.1
278.15 K, x1 = 1	189 ± 5.1
283.15 K, x1 = 0.6001	182.3 ± 4.4
283.15 K, x1 = 1	133.9 ± 3.3
288.15 K, x1 = 0.1023	864 ± 35
288.15 K, x1 = 0.6613	121.1 ± 2.6
293.15 K, x1 = 0.3985	163.9 ± 3.7
293.15 K, x1 = 0.498	123.1 ± 2.6
293.15 K, x1 = 0.6001	99.4 ± 2
293.15 K, x1 = 0.8788	74.2 ± 1.5
298.15 K, x1 = 0.1989	264.3 ± 6.8
303.15 K, x1 = 0.1989	194.8 ± 4.4
303.15 K, x1 = 0.6001	58.8 ± 1.1
308.15 K, x1 = 0.3985	73.2 ± 1.3
313.15 K, x1 = 0.3026	78 ± 1.3
313.15 K, x1 = 0.498	45.11 ± 0.79
313.15 K, x1 = 0.6613	33.88 ± 0.62
318.15 K, x1 = 0.1023	124.4 ± 2.2
318.15 K, x1 = 0.6001	30.12 ± 0.54
318.15 K, x1 = 0.8006	23.35 ± 0.46
323.15 K, x1 = 0.1989	69.7 ± 1
323.15 K, x1 = 0.6613	22.66 ± 0.42
328.15 K, x1 = 0.6001	20.62 ± 0.37
338.15 K, x1 = 0.6613	13.49 ± 0.25
338.15 K, x1 = 0.8006	11.39 ± 0.22
338.15 K, x1 = 1	9.73 ± 0.21
343.15 K, x1 = 0.1989	31.59 ± 0.46
343.15 K, x1 = 0.3985	18.82 ± 0.31
343.15 K, x1 = 0.6001	12.63 ± 0.23
348.15 K, x1 = 0.498	13.05 ± 0.23
353.15 K, x1 = 0.3026	17.55 ± 0.27
353.15 K, x1 = 0.8006	7.3 ± 0.14
353.15 K, x1 = 0.8788	6.78 ± 0.14
353.15 K, x1 = 1	6.11 ± 0.13
358.15 K, x1 = 0.3985	12.24 ± 0.2
358.15 K, x1 = 0.6613	7.62 ± 0.14
358.15 K, x1 = 1	5.31 ± 0.11
368.15 K, x1 = 0.3026	11.71 ± 0.18
368.15 K, x1 = 1	4.09 ± 0.09

CCCCCC(=O)O.CCCCCC(=O)[O-].CC[NH+](CC)CCO + CCCC[n+]1ccn(C)c1.COP(=O)([O-])OC
101 kPa
Settings	viscosity [mPa·s]
278.15 K, x1 = 0.2213	768 ± 30
278.15 K, x1 = 0.6088	295.3 ± 8.6
283.15 K, x1 = 0.0684	1280 ± 58
283.15 K, x1 = 0.4995	242.5 ± 6.4
283.15 K, x1 = 0.7258	185.3 ± 4.6
288.15 K, x1 = 0.2213	362 ± 11
288.15 K, x1 = 0.3088	259.7 ± 6.8
288.15 K, x1 = 1	100.1 ± 2.3
293.15 K, x1 = 0.4995	130.7 ± 2.7
293.15 K, x1 = 0.8535	90.5 ± 1.9
298.15 K, x1 = 0.2213	190.1 ± 4.2
298.15 K, x1 = 0.3088	140.8 ± 2.8
303.15 K, x1 = 0.2213	142.4 ± 2.8
303.15 K, x1 = 0.6088	68.7 ± 1.3
303.15 K, x1 = 1	47.5 ± 1
308.15 K, x1 = 0.1429	147.9 ± 2.9
313.15 K, x1 = 0.0684	157 ± 3
313.15 K, x1 = 0.3088	65.2 ± 1
318.15 K, x1 = 0.3966	43.87 ± 0.71
318.15 K, x1 = 0.8535	29.04 ± 0.58
323.15 K, x1 = 0.3966	35.8 ± 0.58
328.15 K, x1 = 0.4995	26.14 ± 0.44
328.15 K, x1 = 1	17.75 ± 0.38
338.15 K, x1 = 0.0684	48.21 ± 0.64
338.15 K, x1 = 0.2213	30.03 ± 0.44
338.15 K, x1 = 1	12.81 ± 0.27
343.15 K, x1 = 0.0684	39.73 ± 0.53
343.15 K, x1 = 0.2213	25.3 ± 0.37
343.15 K, x1 = 0.3088	20.61 ± 0.32
348.15 K, x1 = 1	9.52 ± 0.2
353.15 K, x1 = 0.2213	18.5 ± 0.27
353.15 K, x1 = 0.4995	11.83 ± 0.2
353.15 K, x1 = 0.7258	10.11 ± 0.19
353.15 K, x1 = 1	8.28 ± 0.18
358.15 K, x1 = 0.2213	16.02 ± 0.23
358.15 K, x1 = 1	7.24 ± 0.16
368.15 K, x1 = 0.3966	9.02 ± 0.15
373.15 K, x1 = 0.2213	10.88 ± 0.16

OCCN(CCO)CCO + CCCC[n+]1ccn(C)c1.F[B-](F)(F)F
Settings	viscosity [mPa·s]
303.15 K, 101 kPa, x1 = 1	400 ± 120

c1ccsc1 + CCCC[n+]1ccn(C)c1.N#C[S-]
100 kPa, x1 = 1
Settings	viscosity [mPa·s]
298.15 K	0.655 ± 0.094
308.15 K	0.585 ± 0.091
318.15 K	0.525 ± 0.088
328.15 K	0.47 ± 0.085
